Test results reported in patent US6140309A, “Vasoactive effects and free radical generation by β-amyloid peptides” (University of South Florida, priority 1996, dated 2000).

What was measured:
aortic rings = experiment: β-amyloid augmentation of phenylephrine (PE) induced contraction of aortic rings; assay type: cell-based, rat; conditions: for effect of drug on β-amyloid induced enhancement of PE mediated contraction: β-amyloid 5×10^-7 M, PE 4×10^-8 M, L-NMMA 10^-4 M, indomethacin 10^-5 M, SQ 29548 10^-5 M, catalase 1000 units/ml
Protocol: (§1) Freshly excised rat and porcine blood vessels were placed in Kreb's bicarbonate buffer equilibrated with 5% CO2 in O2. The buffer composition consisted of 118.2 mM NaCl, 4.7 mM KCl, 1.2 mM MgSO4, 2.5 mM CaCl2, 1.2 mM NaH2 PO4, 23 mM NaHCO3 and 11.2 mM glucose. After cleaning the vessels free of fat and other adhering tissues, the vessels were cut into ring segments of approximately 3mm in length. Care was taken not to damage the intimal surface.
(§2) The blood vessel preparations were mounted on stainless steel hooks attached to a force-displacement transducer and equilibrated under the optimum tension of 1.3 g for a period of sixty minutes in a tissue bath (10 ml) containing oxygenated (5% CO2 in O2) Kreb's buffer at 37° C. The buffer was changed every fifteen minutes. After equilibration for sixty minutes the viability of the blood vessel with intact endothelium was established by constricting the blood vessel using phenylephrine ([…]). This dose of phenylephrine elicited 80% of the maximum response. […] The vessel preparations were washed for fifteen minutes before various manipulations as described below.
The procedure was then repeated following incubation of the tissue with 10^-6 M β-amyloid for fifteen minutes (P1). The tissue was then rinsed and contractions repeated twice following fifteen minute incubation (P2 & P3) without further addition of β-amyloid. Arrows are shown for points of addition for P3.
Following a fifteen minute incubation, the preparations were contracted with 10^-7 M phenylephrine (PE) as described earlier. Control contractions with PE alone were carried out in presence of the various test compounds. Values represent the mean ±SEM of four or more experiments. The heat-inactivated SOD was prepared by placing it in boiling water for thirty minutes followed by cooling prior to use. The hydrogen peroxide-inactivated SOD was prepared by exposing SOD to 10 mM H2 O2 for thirty minutes at pH 8.5 and subsequent separation using Microcon filtration system. The amyloid induced PE contraction was blocked by active SOD. Neither albumin or inactivated SOD had any effect on the amyloid activity.
The effect of preincubation of blood vessel with 10^-6 M β-amyloidon contraction induced by phenylephrine (2,4,8, & 16×10^-8 M is shown in Table 1). The maximum contraction in the absence of β-amyloid is taken as 100% and the values obtained following exposure to β-amyloid are expressed as percent of control value. After washing out phenylephrine and acetylcholine of the control contraction, β-amyloid augmented the phenylephrine induced contractions (P1). This effect was blocked by SOD. Washing out the phenylephrine and acetylcholine of the post peptide contraction and repeating the contractions caused further enhancement (P2). Values represent the mean ±SEM of nine or more experiments.
The tissue was then incubated for fifteen minutes with β-amyloid (5×10^-7 M) with or without the drug, followed by contractions with PE. The concentrations compounds used were: L-NMMA, an inhibitor of NO synthase (10^-4 M); indomethacin, an inhibitor of the cyclooxygenase pathway (10^-5 M); SQ 29548, a thromboxane A2 receptor antagonist (10^-5 M); and catalase (1000 units/ml). Values are represented as percentage of the maximal contraction obtained with β-amyloid and PE alone and standardized to remove the intrinsic effects (if any) of each drug on PE contraction alone. The results represent the mean ±SEM of five or more experiments.

rat coronary arteries = experiment: Constriction of rat coronary arteries by β-amyloid peptides and potentiation of U46619 constriction; assay type: cell-based; conditions: for coronary artery vasoactivity induced by β-amyloid fragments (real time recording): 10^-6 M β-amyloid peptide
Protocol: The effects of β-amyloid peptide were examined on samples of rat coronary arteries prepared as described above. Referring specifically to FIG. 1, rat coronary arteries were treated with β-amyloid peptide (Aβ40) causing constriction of the coronary arteries.
FIG. 3 illustrates the effect of various amyloid fragments on the constriction of rat coronary arteries. Following control constriction with 10^-7 M U46619, the tissue samples were rinsed, equilibrated with buffer, and treated with 10^-6 M Aβ peptides for fifteen minutes. Following treatment with the Aβ peptides, the blood vessels were rinsed and again exposed to U46619. The values are expressed as percent of control constriction produced by U46619 alone.

blood vessel = experiment: Viability and endothelium test of blood vessel rings: phenylephrine constriction, acetylcholine relaxation; assay type: cell-based, rat; conditions: vessel with or without endothelium
Protocol: as §1
The endothelium was removed from some preparations by rubbing the inside of the lumen with a metal spatula for six to ten seconds and subsequent rinsing with buffer. The removal of endothelium was confirmed by testing for relaxation to acetylcholine [Furchgott and Zawadzki, 1980].
as §2

coronary arteries = experiment: Acetylcholine induced relaxation of U46619-preconstricted coronary arteries after Aβ40; assay type: cell-based, rat; conditions: single dose 10^-6 M Aβ40; 10^-7 M U46619; acetylcholine 10^-9 M to 10^-5 M
From the text: The effect of pretreatment of coronary arteries with a single dose (10^-6 M) of Aβ40 on acetylcholine induced relaxation is shown in FIG. 20. The blood vessel was preconstricted with 10^-7 M U46619 and relaxed with increasing doses of acetylcholine (10^-9 M to 10^-5 M).

## O=C(O)CCC/C=C\C[C@@H]1[C@H](CNNC(=O)Nc2ccccc2)[C@H]2CC[C@@H]1O2 [SQ29548]
Aortic rings
  effect of drug on β-amyloid induced enhancement of PE mediated contraction: none of the compounds used (L-NMMA, indomethacin, SQ29548, or catalase) had any significant effect on the enhancement response

## CCCCC[C@H](O)/C=C/[C@@H]1[C@@H](C/C=C\CCCC(=O)O)[C@H]2CO[C@@H]1C2 [U46619]
Rat coronary arteries; U46619 10^-7 M
  effect of the vasoconstrictor on the coronary artery: also caused constriction of the blood vessel

## catalase
Aortic rings
  effect of drug on β-amyloid induced enhancement of PE mediated contraction: none of the compounds used (L-NMMA, indomethacin, SQ29548, or catalase) had any significant effect on the enhancement response

## COc1ccc2c(c1)c(CC(=O)O)c(C)n2C(=O)c1ccc(Cl)cc1 [indomethacin]
Aortic rings
  effect of drug on β-amyloid induced enhancement of PE mediated contraction: none of the compounds used (L-NMMA, indomethacin, SQ29548, or catalase) had any significant effect on the enhancement response

## albumin
Aortic rings; preincubation before 10^-6 M β-amyloid, fifteen minutes, 10^-7 M PE (FIG. 12c)
  effect of test compound on amyloid induced PE contraction (specificity of SOD action): did not protect the blood vessel against the effects of β-amyloid

## Aβ25-35: β-amyloid peptide fragment (GSNKGAIIGLM; Amyloid-beta protein 42; UniProt P05067 696-706, looked up, fragment)
Rat coronary arteries
  coronary artery vasoactivity induced by β-amyloid fragments (real time recording): induce constriction of the coronary artery

## CNC(=N)NCCC[C@H](N)C(=O)O [L-NMMA]
Aortic rings
  effect of drug on β-amyloid induced enhancement of PE mediated contraction: none of the compounds used (L-NMMA, indomethacin, SQ29548, or catalase) had any significant effect on the enhancement response

## CNC[C@H](O)c1cccc(O)c1 [phenylephrine]
Blood vessel
  constriction in response to phenylephrine: constricted in response to phenylephrine with or without endothelium

## Aβ40: Soluble Aβ containing forty amino acids
Rat coronary arteries; 10^-6 M
  duration of constriction compared among fragments: longest sustained constriction
Rat coronary arteries; 10^-6 M Aβ, fifteen minutes
  contraction induced in rat coronary artery: small but detectable contraction
Rat coronary arteries
  coronary artery vasoactivity induced by β-amyloid fragments (real time recording): induce constriction of the coronary artery
Rat coronary arteries; U46619 10^-7 M, 10^-6 M Aβ fifteen minutes
  vasoconstriction induced by U46619 following treatment with Aβ: significantly potentiated
Coronary arteries
  effect on vasodilation induced by acetylcholine: significantly reduced the vasodilation induced by acetylcholine
